Measured values published in PMC7217877, “N-AS-triggered SPMs are direct regulators of microglia in a model of Alzheimer’s disease” (Nature Communications, 2020).

Tests used:
[1] = stability (isomerization) of acetyl sphingosine isomers in phosphate buffer pH 7.4 (LC-ELSD); assay type: physicochemical
Description: To a solution of 1-O-AS (0.25 mg) or 3-O-AS (0.25 mg) in water (400 μl) and DMSO (50 μl) at RT was added sodium phosphate buffer (pH 7.4, 0.1 M, 50 μl). The solution was mixed homogeneously with micropipette and was incubated at 25 °C for 10 min. Reverse-phase HPLC was performed using Agilent 1220 coupled with Agilent 1260 Infinity ELSD. Phenomenex Kinetex 1.7 μm C8 100 A ([…] LC column) at a flow rate of 0.5 ml min^−1 was used. A gradient of acetonitrile with 0.1% formic acid was used as an eluent.

COX2 = experiment: SphK1-mediated COX2 acetylation with [14C] acetyl-CoA (ATP competition, SphK1 mutants; Supplementary Fig 1h,i); assay type: biochemical, human; conditions: ATP 0-1000 µM as competitor of acetyl-CoA
Excerpt: Single point mutations in SphK1 (R56A, R57A, R24A, R185A, D178A, and F192A) and COX2 (S565A, N181A, T564A, and S567A) were generated using the In-Fusion Cloning Kits (Clontech) and ORF cDNA expression plasmids of human SphK1 and COX2 gene (Sino Biological Inc, HG15679-NH and HG12036-NH), according to the manufacturer’s instructions. The forward and reverse primers described in Supplementary Table 4. The SphK1 WT, SphK1 mutants, COX2 WT, and COX2 mutant plasmids were transformed in the One shot TOP 10 competent cell (Invitrogen). The bacteria were grown in Luria-Bertani (LB, Invitrogen) plates supplemented with 50 μg ml^−1 kanamycin (Sigma-Aldrich) at 37 °C. The bacterial cell pellets were resuspended in lysis buffer containing 20 mM sodium phosphate (GE Healthcare), 500 mM NaCl (GE Healthcare), 20 mM imidazole (pH 7.4) (GE Healthcare), 0.2 mg ml^−1 lysozyme (Sigma-Aldrich), 20 μg ml^−1 DNase I (Roche), 1 mM MgCl2 (Sigma-Aldrich), and 1 mM PMSF (Sigma-Aldrich) before being lysed by sonication and clarified by centrifugation at 15,493×g for 10 min. Proteins were purified from the soluble fraction using His-Spin Trap columns (GE Healthcare) and the binding and acetylation assays were performed.
Acetylation assays were performed according to previously described procedures with minor modifications. […] N-AS (2 μCi, ARC UK Ltd, ARC-1024) at 37 °C for 2 h. [^14C] aspirin (2 μCi, ARC UK Ltd, ARC-0473) was conducted as the positive control. The reactions were terminated by placing the reaction tubes in ice for 5 min. To evaluate in vivo neuronal and microglial COX2 acetylation, 10 μCi [^14C] N-AS was orally administrated to 9-months-old WT and APP/PS1 mice. After 1 h, neuron and microglia were isolated and sonicated in culture media. To immunoprecipitate acetylated COX2, the sample was incubated with COX2 antibody (Abcam, ab15191) at 4 °C for 24 h and precipitated by adding 50 μl of protein-A sepharose (GE Healthcare). Acetylated COX2 proteins bound to the beads were analyzed using a Tri-Carb 3110TR liquid scintillation counter (Perkin-Elmer).

[2] = test system: immortalized human microglia; experiment: ac-S565 COX2 in human microglia (western blot, immunofluorescence, Supplementary Fig 6b,c); assay type: cell-based; conditions: zileuton with N-AS in Aβ-treated human microglia vs without zileuton
Description: To confirm the generation and roles of N-AS in neurons, cells from E18 C57BL/6 mice were prepared as previously described. Cortices were dissected and then dissociated followed by incubation in papain (Worthington) at 37 °C for 15 min. Neurons were plated on poly-L-lysine-coated coverslips with neuronal culture medium, serum-free Neurobasal medium (Gibco) containing 2% B27 supplements (Gibco), 1 mM Glutamax supplement (Gibco), and 100 U ml^−1 streptomycin/ 100 U ml^−1 penicillin (Gibco) at 37 °C in a humidified atmosphere of 5% CO2. Aβ 1–42 (10 μM, 24 h, Invitrogen, 03112) was exposed to neurons and the cells were analyzed for the generation and roles of N-AS. Primary astrocyte cultures were prepared from C57BL/6 mice as described previously. In brief, after removal of the meninges, postnatal day 7 (P7) mouse brain tissues were minced and incubated in a rocking water bath at 37 °C for 30 min in the presence of 0.25% trypsin-EDTA (Sigma-Aldrich). Enzyme-digested dissociated cells were triturated with astrocyte-specific medium (DMEM/F12 containing 10% FBS and 1% penicillin-streptomycin) and centrifuged at 155×g for 8 min. The pellet was resuspended in astrocyte-specific medium and passed through a 40-μm cell strainer. The filtrate was allowed pre-adherence for 30 min to remove any contamination from fibroblasts before being seeded in dishes and the addition of astrocyte-specific medium. To split the cells, Ara-C was added to the dishes and they were then placed in a heated shaker for 6–7 h. The medium was removed from the dishes, and trypsin-EDTA was added to the dish and incubated at 37 °C for 5–10 min. After centrifugation at 155×g for 8 min, the supernatant was removed, and the astrocytes were maintained in culture by feeding […] with astrocyte-specific medium. Primary microglia cultures were prepared from C57BL/6 mice as described previously. In brief, the cortices of 2-months-old mice were minced in Hibernate A (Gibco)/B27 supplements (Gibco) medium and dissociated using papain (Worthington) solution. After tissue trituration, cells were separated by Optiprep (Sigma-Aldrich) density gradient centrifugation. Microglia were plated with microglia-specific medium (DMEM/F12 containing 10% FBS and 1% penicillin-streptomycin). The immortalized human microglia (Applied Biologics Materials, T0251) were cultured in PriGrow III (Applied Biologics Materials, TM003) (supplemented with 10% FBS and 1% penicillin-streptomycin) at 37 °C in a humidified atmosphere of 5% CO2. […] The human microglia treated with Aβ 1–42 and/or zileuton was incubated with N-AS (2.5 μM, 2 h, Sigma-Aldrich, 01912), and were analyzed for the generation and roles of N-AS.
Thioflavin S (Sigma-Aldrich) staining was carried out according to previously described procedures. We used 6E10 (mouse, 1:100, Signet, SIG39300), anti-20G10 (mouse, 1:1000, provided by D. R. Howlett, GlaxoSmithKline, Harlow, Essex, UK) for Aβ42, anti-G30 (rabbit, 1:1000, provided by D. R. Howlett) for Aβ40, SMA (mouse, 1:400, Sigma-Aldrich, A2547), AT8 (mouse, 1:500, Thermo Fisher Scientific, MN1020), Caspase-3 (mouse, 1:200, Novus Biologicals, NB100-56708), ac-S565 (rabbit, 1:100), COX2 (mouse, 1:250, Thermo Fisher Scientific, 35-8200), Iba1 (rabbit, 1:500, Wako, 019-19941 and goat, Abcam, ab5076), NeuN (mouse, 1:500, Millipore, MAB177), GFAP (rabbit, 1:500, Dako, N1506 and chicken, 1:500, Abcam, ab4674), and Lamp1 (mouse, 1:200, Abcam, ab24170). The sections were analyzed with a laser-scanning confocal microscope (FV3000; Olympus) or with a BX51 microscope (Olympus). MetaMorph software (Molecular Devices) was used to quantification. Three-dimensional reconstruction of microglia was recorded and analyzed using IMARIS software (Bitplane)[11]. […]

[3] = test system: immortalized human microglia; experiment: LM-SPM profile of human microglia (LC-MS/MS, Supplementary Table 3, Fig 6d); assay type: cell-based
[4] = test system: immortalized human microglia; experiment: live-cell phagocytosis assay (bead uptake, Supplementary Fig 6e,f); assay type: cell-based; conditions: zileuton with N-AS in Aβ-treated human microglia
Description: Live-cell phagocytosis assays were performed according to previously described procedures with minor modifications. Briefly, in a glass bottom cell culture dish (SPL, 101350), adult SV40 immortalized human microglia cells (Applied Biologics Materials, T0251) were seeded for phagocytosis assay. […] After incubation, the microglia were treated with 0 or 2.5 μM N-AS (Sigma-Aldrich, 01912) at 37 °C for 2 h. FITC beads (Invitrogen) preopsonized in FBS (Gibco) were added at a concentration at 0.01% and then immediately observed using a laser scanning confocal microscope equipped with a live cell chamber system (FV3000, Olympus) for 2 h. Confocal images were collected every 5 min for 2 h and analyzed using the ImageJ software (National Institutes of Health).

Question: Which “time to isomerization to N-AS” value [1] does the source give for `CCCCCCCCCCCCC/C=C/[C@@H](O)[C@@H](N)COC(C)=O.O=C(O)C(F)(F)F` [1-O-AS, (2S,3R,E)-1-Acetoxy-3-hydroxyoctadec-4-en-2-aminium trifluoroacetate] here?
Answer: Its value is “less than 10 min”.

Question: Which “time to isomerization to N-AS” value [1] does the source give for `CCCCCCCCCCCCC/C=C/[C@@H](OC(C)=O)[C@@H](N)CO.O=C(O)C(F)(F)F` [3-O-AS, (2S,3R,E)-3-Acetoxy-1-hydroxyoctadec-4-en-2-aminium trifluoroacetate] here?
Answer: The value was “less than 10 min”.

Question: With `Nc1ncnc2c1ncn2[C@@H]1O[C@H](COP(=O)(O)OP(=O)(O)OP(=O)(O)O)[C@@H](O)[C@H]1O` [ATP] as the compound, how does the “SphK1-mediated COX2 acetylation, in words” value (COX2) read?
Answer: Its value is “inhibited in a concentration dependent manner”.

Question: Which “N-AS-induced COX2 acetylation, in words” value [2] does the source give for `CC(c1cc2ccccc2s1)N(O)C(N)=O` (centres unmarked) [zileuton, reference compound] here?
Answer: The value was “no significant”.

Question: What about the “LTB4, in words” value ([3]; zileuton treatment) of the same compound?
Answer: Its value is “LTB4 was not detected”.

Question: And the “PGE2, in words” value ([3]; zileuton treatment)?
Answer: Its value is “reduced PGE2”.

Question: What about the “production of N-AS-triggered SPMs, in words” value ([3]; zileuton with N-AS in Aβ-treated human microglia) of the same compound?
Answer: The value was “inhibited”.

Question: What about the “restoration of phagocytic capacity, in words” value [4] of the same compound?
Answer: The value was “inhibited”.
